{"source": "paper PMC7010297", "about": "“How the initiating ribosome copes with ppGpp to translate mRNAs” (PLoS Biology, 2020)", "key": {"[1]": {"target": "T1, 70S pre-IC (50S joining to 30S IC) (Escherichia coli, UniProt P0A705)", "T1 construct": "6xHis (N); made in house", "T1 sequence (P0A705 whole entry, looked up)": "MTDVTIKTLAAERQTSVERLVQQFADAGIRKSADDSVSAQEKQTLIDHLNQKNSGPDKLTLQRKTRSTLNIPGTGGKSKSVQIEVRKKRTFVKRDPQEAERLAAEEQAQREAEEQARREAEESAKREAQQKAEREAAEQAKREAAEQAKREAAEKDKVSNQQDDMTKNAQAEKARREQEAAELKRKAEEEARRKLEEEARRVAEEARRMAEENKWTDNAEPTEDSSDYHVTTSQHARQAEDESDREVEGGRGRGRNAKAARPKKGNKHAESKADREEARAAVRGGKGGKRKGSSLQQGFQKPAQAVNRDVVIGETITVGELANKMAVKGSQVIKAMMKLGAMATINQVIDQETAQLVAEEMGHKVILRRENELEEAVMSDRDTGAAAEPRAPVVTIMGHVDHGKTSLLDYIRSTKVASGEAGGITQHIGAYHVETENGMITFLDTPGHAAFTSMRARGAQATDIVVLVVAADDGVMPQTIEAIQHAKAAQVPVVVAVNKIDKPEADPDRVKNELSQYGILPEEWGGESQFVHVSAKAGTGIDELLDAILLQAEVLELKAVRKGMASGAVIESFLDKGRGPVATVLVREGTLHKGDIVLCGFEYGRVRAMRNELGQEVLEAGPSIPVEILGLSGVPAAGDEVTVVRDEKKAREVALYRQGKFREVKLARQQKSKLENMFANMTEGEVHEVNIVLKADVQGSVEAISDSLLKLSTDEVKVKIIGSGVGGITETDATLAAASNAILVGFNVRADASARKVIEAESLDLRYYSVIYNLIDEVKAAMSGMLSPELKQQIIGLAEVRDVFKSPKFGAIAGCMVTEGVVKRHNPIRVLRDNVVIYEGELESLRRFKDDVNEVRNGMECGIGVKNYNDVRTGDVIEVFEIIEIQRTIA", "experiment": "70S pre-IC formation by light scattering, stopped-flow", "assay_type": "biochemical", "design": "K1, best-fit value / k2, best-fit value: unit not given here", "conditions": "for A0, best-fit value / K1, best-fit value / k2, best-fit value: fit Y=A0+A1*exp(-K1*x)+k2*x; for kfast (s-1) Avg: light scattering", "outline": "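Stopped-flow at 25 °C: 0.2 μM 30S ICs mixed with 0.6 μM 50S subunits; pre-IC formation followed by 90° light scattering (excitation 430 nm), accommodation by Bpy-tRNAi fluorescence (excitation 470 nm, 495-nm longpass). Averaged traces fitted by single or double exponentials to give kapp.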"}, "IF2-bound 30S IC": {"target": "T2, IF2-bound 30S IC (Escherichia coli, UniProt P0A705)", "T2 construct": "6xHis (N); made in house", "T2 sequence (P0A705 whole entry, looked up)": "as above", "experiment": "30S IC formation by MST, guanosine nucleotide titration;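 for MST Average: lower thermophoresis signal means Bpy-tRNAi dissociation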;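 for MST Replicates (a.u.): lower thermophoresis signal means Bpy-tRNAi dissociation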", "assay_type": "binding", "conditions": "for MST Average / MST Replicates (a.u.): Fig 2B (GDP/ppGpp series)", "outline": "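Binding of fluorescently labelled initiator tRNA (Bpy-tRNAi) to E. coli 30S subunits followed by microscale thermophoresis, titrating guanosine nucleotides at constant 1 μM IF2. Dissociation constants from quadratic nonlinear fits of Ff/Fi versus ligand concentration; three measurements, mean ± SD.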"}, "[2]": {"target": "T3, 30S IC (30S-bound IF2, Bpy-tRNAi) (Escherichia coli, UniProt P0A705)", "T3 construct": "6xHis (N); made in house", "T3 sequence (P0A705 whole entry, looked up)": "as above", "experiment": "30S IC formation measured by MST at increasing concentrations of IF2 with guanosine nucleotides", "assay_type": "binding", "conditions": "Fig 2A", "outline": "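Binding of fluorescent Bpy-tRNAi to E. coli 30S subunits monitored by microscale thermophoresis over increasing IF2 with each guanosine nucleotide; nucleotide titrations used IF2 fixed at 1 μM. Dissociation constants from quadratic fits of Ff/Fi; triplicate measurements.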"}}, "note": "Several values for one entry are separate records, joined by “and”; a condition that tells them apart may be missing. Equal values may be shown once.", "data": [{"smiles": "Nc1nc2c(ncn2[C@@H]2O[C@H](COP(=O)(O)OP(=O)(O)O)[C@@H](OP(=O)(O)OP(=O)(O)O)[C@H]2O)c(=O)[nH]1", "note": "[ppGpp]", "values": [{"measurement": "efficiency (amplitude) of 70S pre-IC formation", "setting": "[1]; 0.2 mM nucleotide, no GTP", "value": "reduced efficiencies"}, {"measurement": "rapid 70S pre-IC formation in the absence of GTP", "setting": "[1]; 0.2 mM nucleotide, noncompetitive (S6 Fig)", "value": "negligible"}, {"measurement": "A0, best-fit value", "setting": "[1]; mInfA", "value": 1.01}, {"measurement": "K1, best-fit value", "setting": "[1]; mInfA", "value": "1.203 and 1.20"}, {"measurement": "k2, best-fit value", "setting": "[1]; mInfA", "value": "0.0007 and 0.000671"}, {"measurement": "A0, best-fit value", "setting": "[1]; mMF1", "value": 1.01}, {"measurement": "K1, best-fit value", "setting": "[1]; mMF1", "value": "2.759 and 2.76"}, {"measurement": "k2, best-fit value", "setting": "[1]; mMF1", "value": "0.0007 and 0.000692"}, {"measurement": "LS amplitude (a.u.) Avg", "setting": "[1]; mRNA mInfA", "value": 0.011, "unit": "a.u."}, {"measurement": "kfast (s-1) Avg", "setting": "[1]; mRNA mInfA", "value": 1.20, "unit": "s⁻¹"}, {"measurement": "LS amplitude (a.u.) Avg", "setting": "[1]; mRNA mMF1", "value": 0.012, "unit": "a.u."}, {"measurement": "kfast (s-1) Avg", "setting": "[1]; mRNA mMF1", "value": 2.76, "unit": "s⁻¹"}, {"measurement": "LS amplitude (a.u.) Avg", "setting": "[1]; mRNA mTufA", "value": 0.035, "unit": "a.u."}, {"measurement": "kfast (s-1) Avg", "setting": "[1]; mRNA mTufA", "value": 3.76, "unit": "s⁻¹"}, {"measurement": "A0, best-fit value", "setting": "[1]; mTufA", "value": 1.03}, {"measurement": "K1, best-fit value", "setting": "[1]; mTufA", "value": "3.763 and 3.76"}, {"measurement": "k2, best-fit value", "setting": "[1]; mTufA", "value": "0.0010 and 0.00104"}, {"measurement": "MST Average", "setting": "IF2-bound 30S IC; nucleotide 0.13 µM", "value": 936.81, "unit": "a.u."}, {"measurement": "MST Replicates (a.u.)", "setting": "IF2-bound 30S IC; nucleotide 0.13 µM, constant IF2 (1 μM)", "value": "935.73 a.u. and 937.32 a.u. and 936.20 a.u. and 937.97 a.u."}, {"measurement": "MST Average", "setting": "IF2-bound 30S IC; nucleotide 0.25 µM", "value": 935.17, "unit": "a.u."}, {"measurement": "MST Replicates (a.u.)", "setting": "IF2-bound 30S IC; nucleotide 0.25 µM", "value": "933.09 a.u. and 935.35 a.u. and 935.04 a.u. and 937.21 a.u."}, {"measurement": "MST Average", "setting": "IF2-bound 30S IC; nucleotide 0.50 µM", "value": 935.42, "unit": "a.u."}, {"measurement": "MST Replicates (a.u.)", "setting": "IF2-bound 30S IC; nucleotide 0.50 µM", "value": "934.19 a.u. and 935.54 a.u. and 934.92 a.u. and 937.01 a.u."}, {"measurement": "MST Average", "setting": "IF2-bound 30S IC; nucleotide 1.00 µM", "value": 934.04, "unit": "a.u."}, {"measurement": "MST Replicates (a.u.)", "setting": "IF2-bound 30S IC; nucleotide 1.00 µM", "value": "932.40 a.u. and 934.21 a.u. and 934.12 a.u. and 935.41 a.u."}, {"measurement": "MST Average", "setting": "IF2-bound 30S IC; nucleotide 2.00 µM", "value": 933.55, "unit": "a.u."}, {"measurement": "MST Replicates (a.u.)", "setting": "IF2-bound 30S IC; nucleotide 2.00 µM", "value": "931.48 a.u. and 933.31 a.u. and 934.38 a.u. and 935.04 a.u."}, {"measurement": "MST Average", "setting": "IF2-bound 30S IC; nucleotide 4.00 µM", "value": 931.78, "unit": "a.u."}, {"measurement": "MST Replicates (a.u.)", "setting": "IF2-bound 30S IC; nucleotide 4.00 µM", "value": "930.04 a.u. and 931.00 a.u. and 932.61 a.u. and 933.45 a.u."}, {"measurement": "MST Average", "setting": "IF2-bound 30S IC; nucleotide 8.00 µM", "value": 932.68, "unit": "a.u."}, {"measurement": "MST Replicates (a.u.)", "setting": "IF2-bound 30S IC; nucleotide 8.00 µM", "value": "930.98 a.u. and 932.59 a.u. and 933.05 a.u. and 934.12 a.u."}, {"measurement": "MST Average", "setting": "IF2-bound 30S IC; nucleotide 16.00 µM", "value": 932.30, "unit": "a.u."}, {"measurement": "MST Replicates (a.u.)", "setting": "IF2-bound 30S IC; nucleotide 16.00 µM", "value": "931.44 a.u. and 932.29 a.u. and 931.81 a.u. and 933.65 a.u."}, {"measurement": "MST Average", "setting": "IF2-bound 30S IC; nucleotide 31.00 µM", "value": 930.81, "unit": "a.u."}, {"measurement": "MST Replicates (a.u.)", "setting": "IF2-bound 30S IC; nucleotide 31.00 µM", "value": "928.79 a.u. and 930.49 a.u. and 930.93 a.u. and 933.04 a.u."}, {"measurement": "MST Average", "setting": "IF2-bound 30S IC; nucleotide 62.00 µM", "value": 932.86, "unit": "a.u."}, {"measurement": "MST Replicates (a.u.)", "setting": "IF2-bound 30S IC; nucleotide 62.00 µM", "value": "931.23 a.u. and 932.53 a.u. and 932.57 a.u. and 935.11 a.u."}, {"measurement": "MST Average", "setting": "IF2-bound 30S IC; nucleotide 125.00 µM", "value": 932.91, "unit": "a.u."}, {"measurement": "MST Replicates (a.u.)", "setting": "IF2-bound 30S IC; nucleotide 125.00 µM", "value": "931.17 a.u. and 932.39 a.u. and 933.25 a.u. and 934.84 a.u."}, {"measurement": "promotion of Bpy-tRNAi binding (thermophoresis) in guanosine nucleotide titration", "setting": "IF2-bound 30S IC; constant IF2 (1 μM)", "value": "failed to promote Bpy-tRNAi binding at any concentration"}, {"measurement": "MST Replicates (a.u.)", "setting": "[2]; IF2 0.16 µM, in the presence of the nucleotide", "value": "941.10 a.u. and 944.88 a.u. and 948.29 a.u."}, {"measurement": "MST Average", "setting": "[2]; IF2 0.31 µM", "value": 944.83, "unit": "a.u."}, {"measurement": "MST Replicates (a.u.)", "setting": "[2]; IF2 0.31 µM", "value": "937.79 a.u. and 942.65 a.u. and 947.01 a.u."}, {"measurement": "MST Average", "setting": "[2]; IF2 0.63 µM", "value": 941.79, "unit": "a.u."}, {"measurement": "MST Replicates (a.u.)", "setting": "[2]; IF2 0.63 µM", "value": "935.48 a.u. and 940.20 a.u. and 943.38 a.u."}, {"measurement": "MST Average", "setting": "[2]; IF2 1.25 µM", "value": 942.39, "unit": "a.u."}, {"measurement": "MST Replicates (a.u.)", "setting": "[2]; IF2 1.25 µM", "value": "936.09 a.u. and 941.10 a.u. and 943.68 a.u."}, {"measurement": "MST Average", "setting": "[2]; IF2 2.50 µM", "value": 949.26, "unit": "a.u."}, {"measurement": "MST Replicates (a.u.)", "setting": "[2]; IF2 2.50 µM", "value": "943.13 a.u. and 948.21 a.u. and 950.30 a.u."}, {"measurement": "MST Average", "setting": "[2]; IF2 5.00 µM", "value": 968.50, "unit": "a.u."}, {"measurement": "MST Replicates (a.u.)", "setting": "[2]; IF2 5.00 µM", "value": "965.17 a.u. and 967.18 a.u. and 969.82 a.u."}]}]}
